Laboratory results from ChEMBL document CHEMBL6182840, “A review of click chemistry in the synthesis of organophosphorus triazoles and their biological activities” (Eur J Med Chem, 2025).

How the values were obtained:
HepG2 = assay: Cytotoxicity against human HepG2 cells assessed as reduction in cell viability by MTS assay; format: functional, cell-based
[1] = Cytotoxicity against human PBMC cells assessed as reduction in cell viability by MTS assay; format: functional, cell-based
Hepatitis B virus = assay: Antiviral activity against HBV infected in human Huh-7 cells assessed as inhibition of HBV DNA production at 10 uM relative to control; format: functional
MCF7 [2] = assay: Cytotoxicity against human MCF7 cells assessed as reduction in cell growth by MTT assay; format: functional, cell-based
HCT-116 [3] = assay: Cytotoxicity against human HCT-116 cells assessed as reduction in cell growth by MTT assay; format: functional, cell-based
[4] = Cytotoxicity against human HEF cells assessed as reduction in cell growth by MTT assay; format: functional, cell-based
HCT-116 [5] = assay: Cytotoxicity against human HCT-116 cells assessed as reduction in cell viability incubated for 72 hrs by MTT assay; format: functional, cell-based; settings: HCT-116, 72 h
MCF7 [6] = assay: Cytotoxicity against human MCF7 cells assessed as reduction in cell viability incubated for 72 hrs by MTT assay; format: functional, cell-based; settings: MCF7, 72 h
Caov-3 cell line = assay: Cytotoxicity against human Caov-3 cell line assessed as reduction in cell viability incubated for 72 hrs by MTT assay; format: functional, cell-based; settings: Caov-3, 72 h
A549 = assay: Cytotoxicity against human A549 cells assessed as reduction in cell viability incubated for 72 hrs by MTT assay; format: functional, cell-based; settings: A549, 72 h
PC-3 = assay: Cytotoxicity against human PC-3 cells assessed as reduction in cell viability incubated for 72 hrs by MTT assay; format: functional, cell-based; settings: PC-3, 72 h
[7] = target: T1, 4-galactosyl-N-acetylglucosaminide 3-alpha-L-fucosyltransferase FUT6 (Homo sapiens, UniProt P51993); assay: Inhibition of human FUT6
T1 sequence (P51993 whole entry): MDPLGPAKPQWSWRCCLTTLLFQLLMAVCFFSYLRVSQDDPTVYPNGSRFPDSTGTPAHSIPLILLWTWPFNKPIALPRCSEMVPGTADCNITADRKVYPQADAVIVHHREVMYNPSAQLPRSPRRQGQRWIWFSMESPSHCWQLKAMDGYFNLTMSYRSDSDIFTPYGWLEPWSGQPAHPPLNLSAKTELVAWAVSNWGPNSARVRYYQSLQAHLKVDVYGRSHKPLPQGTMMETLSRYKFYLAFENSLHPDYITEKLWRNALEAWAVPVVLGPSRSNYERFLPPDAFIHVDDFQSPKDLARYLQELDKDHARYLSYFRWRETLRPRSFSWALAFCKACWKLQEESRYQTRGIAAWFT

Q: For `CCCCCCCCCCCCCCCCOCCCOP(=O)(C/C=C(\C)Cn1cc(C(N)=O)nn1)OCOC(=O)OC(C)C` (stereo not given), which IC50 (HepG2) is on record?
A: 66400 nM

Q: And the IC50 [1]?
A: 43100 nM

Q: What about the inhibition at 10 µM (Hepatitis B virus) of the same compound?
A: 62%

Q: What does the source list for `CCOP(=O)(OCC)C(Cc1cn(CCN2C/C(=C\c3ccc([N+](=O)[O-])cc3)C(=O)/C(=C/c3ccc([N+](=O)[O-])cc3)C2)nn1)P(=O)(OCC)OCC`?
A: IC50 (MCF7 [2]): 5000 nM; IC50 (HCT-116 [3]): 5000 nM; IC50 [4]: 5000 nM

Q: Which results are given for `CCOP(=O)(CCCn1cc(CN2C/C(=C\c3ccc(C#N)cc3)C(=O)/C(=C/c3ccc(C#N)cc3)C2)nn1)OCC`?
A: IC50 (HCT-116 [5]): 1500 nM; IC50 (MCF7 [6]): 1500 nM; IC50 (Caov-3 cell line): 1500 nM; IC50 (A549): 1500 nM; IC50 (PC-3): 1500 nM

Q: Which IC50 (HCT-116 [5]) does the source give for `CCOP(=O)(CCCCn1cc(CN2C/C(=C\c3ccc([N+](=O)[O-])cc3)C(=O)/C(=C/c3ccc([N+](=O)[O-])cc3)C2)nn1)OCC` here?
A: 1500 nM

Q: And the IC50 (MCF7 [6])?
A: 1500 nM

Q: What about the IC50 (Caov-3 cell line) of the same compound?
A: 1500 nM

Q: And the IC50 (A549)?
A: 1500 nM

Q: And the IC50 (PC-3)?
A: 1500 nM

Q: What does the source list for `CCOP(=O)(CCCn1cc(CN2C/C(=C\c3ccc([N+](=O)[O-])cc3)C(=O)/C(=C/c3ccc([N+](=O)[O-])cc3)C2)nn1)OCC`?
A: IC50 (HCT-116 [5]): 1500 nM; IC50 (MCF7 [6]): 1500 nM; IC50 (Caov-3 cell line): 1500 nM; IC50 (A549): 1500 nM; IC50 (PC-3): 1500 nM

Q: With `Nc1nc2c(ncn2[C@@H]2O[C@H](COP(=O)(O)OP(=O)(O)OCc3cn(CCCCC(=O)NCc4ccc(-c5ccccc5)cc4)nn3)[C@@H](O)[C@H]2O)c(=O)[nH]1` as the compound, how does the IC50 [7] read?
A: 610 nM

Q: For `CCOP(=O)(CCCCn1cc(CN2C/C(=C\c3ccc(C#N)cc3)C(=O)/C(=C/c3ccc(C#N)cc3)C2)nn1)OCC`, which IC50 (HCT-116 [5]) is on record?
A: 1500 nM

Q: What about the IC50 (MCF7 [6]) of the same compound?
A: 1500 nM

Q: What about the IC50 (Caov-3 cell line) of the same compound?
A: 1500 nM

Q: And the IC50 (A549)?
A: 1500 nM

Q: What about the IC50 (PC-3) of the same compound?
A: 1500 nM

Q: For `CCOP(=O)(OCC)C(Cc1cn(CCN2C/C(=C\c3ccc(C#N)cc3)C(=O)/C(=C/c3ccc(C#N)cc3)C2)nn1)P(=O)(OCC)OCC`, which IC50 (MCF7 [2]) is on record?
A: 5000 nM

Q: What about the IC50 (HCT-116 [3]) of the same compound?
A: 5000 nM

Q: What about the IC50 [4] of the same compound?
A: 5000 nM

Q: With `CCOP(=O)(CCCn1cc(CN2C/C(=C\c3ccc(F)cc3)C(=O)/C(=C/c3ccc(F)cc3)C2)nn1)OCC` as the compound, how does the IC50 (HCT-116 [5]) read?
A: 1500 nM

Q: And the IC50 (MCF7 [6])?
A: 1500 nM

Q: And the IC50 (Caov-3 cell line)?
A: 1500 nM

Q: And the IC50 (A549)?
A: 1500 nM

Q: And the IC50 (PC-3)?
A: 1500 nM
